System: Plasmodium berghei
Experiment: Luciferase/luciferin-expressing antifolate-resistant parasites were used to infect a culture of HepG2 cells that were pre-incubated with compounds. Infected hepatocytes emit light due to the luciferase reaction. Assay results are presented as the percent inhibition of light emission compared to control. […]
Type: functional
Settings: sporozoite; for IC90: read-out: LUCIFERASE INFECTION ASSAY - IC90

Row | SMILES | IC90 [µM] | also measured
1 | O=C(Nc1ccc(N2CCN(c3ccc(C(F)(F)F)cn3)CC2)nc1)c1cccs1 | > 7.61 | IC50 (PBLUC_HILL_SLOPE 0.747, PBLUC_R_SQUARED 0.763, read-out: LUCIFERASE INFECTION ASSAY - IC50): 0.638 µM
2 | Cc1ccc(OCC(=O)N(Cc2ccccc2)c2c(N)n(Cc3ccccc3)c(=O)[nH]c2=O)c(C)c1 | > 10 | IC50 (PBLUC_HILL_SLOPE 0.649, PBLUC_R_SQUARED 0.141, read-out: LUCIFERASE INFECTION ASSAY - IC50): > 10 µM
3 | Cc1ncc(CC(=O)n2cc(C(=O)c3cc(F)ccc3O)cn2)s1 | > 10 | IC50 (PBLUC_HILL_SLOPE 0.716, PBLUC_R_SQUARED 0.277, read-out: LUCIFERASE INFECTION ASSAY - IC50): > 10 µM
4 | COCC(C)n1c(C)cc(C(=O)CSc2ccc(NC(C)=O)cc2)c1C (configuration not stated) | > 10 | IC50 (PBLUC_HILL_SLOPE 0.698, PBLUC_R_SQUARED 0.74, read-out: LUCIFERASE INFECTION ASSAY - IC50): 0.948 µM
5 | CCOC(=O)c1ccccc1NC(=O)C1CCN(c2ncnc3sc(C)c(C)c23)CC1 | > 10 | IC50 (PBLUC_HILL_SLOPE 0.744, PBLUC_R_SQUARED 0.552, read-out: LUCIFERASE INFECTION ASSAY - IC50): 5.7 µM
6 | COc1ccccc1CNc1nc(NCc2cccc(OC)c2OC)c2sccc2n1 | > 7.56 | IC50 (PBLUC_HILL_SLOPE 0.707, PBLUC_R_SQUARED 0.411, read-out: LUCIFERASE INFECTION ASSAY - IC50): 2.69 µM
7 | COc1cc(NC(=S)Nc2cccc(OC(F)(F)F)c2)cc(C(F)(F)F)c1 | > 8.04 | IC50 (PBLUC_HILL_SLOPE 0.721, PBLUC_R_SQUARED 0.563, read-out: LUCIFERASE INFECTION ASSAY - IC50): 2.34 µM
8 | C=CCn1c(C)cc(C(=O)Cn2nnc(-c3ccccc3C)n2)c1C | > 10 | IC50 (PBLUC_HILL_SLOPE 0.683, PBLUC_R_SQUARED 0.219, read-out: LUCIFERASE INFECTION ASSAY - IC50): > 10 µM
9 | O=C(Nc1ccncc1)c1cc(Br)c(Br)s1 | > 10 | IC50 (PBLUC_HILL_SLOPE 0.742, PBLUC_R_SQUARED 0.564, read-out: LUCIFERASE INFECTION ASSAY - IC50): 4.29 µM
10 | CC1CC(NC(=S)NCc2csc3ccccc23)CC(C)(C)C1 (configuration not stated) | > 9.52 | IC50 (PBLUC_HILL_SLOPE 0.667, PBLUC_R_SQUARED 0.384, read-out: LUCIFERASE INFECTION ASSAY - IC50): > 9.52 µM
11 | C=CCN(C(=O)c1[nH]c(C)c(C(C)=O)c1C)c1nc2c(s1)CCCC2 | 6.45 | IC50 (PBLUC_HILL_SLOPE 0.713, PBLUC_R_SQUARED 0.94, read-out: LUCIFERASE INFECTION ASSAY - IC50): 0.296 µM
12 | Cc1cccc(OCC(=O)Nc2nc(C)c(Cc3ccc4c(c3)OCO4)s2)c1 | > 10 | IC50 (PBLUC_HILL_SLOPE 0.768, PBLUC_R_SQUARED 0.0907, read-out: LUCIFERASE INFECTION ASSAY - IC50): > 10 µM
13 | CCCCn1c(N)c(-c2nc(CC(C)(C)C)c(C(=O)c3ccc(Br)s3)s2)c(=O)n(C)c1=O | > 10 | IC50 (PBLUC_HILL_SLOPE 0.7, PBLUC_R_SQUARED 0.683, read-out: LUCIFERASE INFECTION ASSAY - IC50): 2.73 µM
14 | CCc1ccc(S(=O)(=O)Nc2cc(Cl)c(O)c3ccccc23)cc1 | > 10 | IC50 (PBLUC_HILL_SLOPE 0.706, PBLUC_R_SQUARED 0.416, read-out: LUCIFERASE INFECTION ASSAY - IC50): 1.42 µM
15 | CN(C)c1ccc(Nc2nc(=O)cn[nH]2)cc1 | > 14.3 | IC50 (PBLUC_HILL_SLOPE 0.727, PBLUC_R_SQUARED 0.391, read-out: LUCIFERASE INFECTION ASSAY - IC50): > 14.3 µM
16 | Cc1c2cnn(C)c(=O)c2c(C)n1Cc1cccs1 | > 12.1 | IC50 (PBLUC_HILL_SLOPE 0.733, PBLUC_R_SQUARED 0.45, read-out: LUCIFERASE INFECTION ASSAY - IC50): 4.19 µM
17 | O=C(Nc1ccc2c(c1)OC1(CCCCC1)O2)c1ccc[nH]c1=S | 4.02 | IC50 (PBLUC_HILL_SLOPE 0.703, PBLUC_R_SQUARED 0.661, read-out: LUCIFERASE INFECTION ASSAY - IC50): 0.176 µM
18 | Cc1ccc(-c2cnc3c(Nc4ccc(NS(=O)(=O)c5ccc(C)cc5)cc4)nccn23)cc1 | > 7.03 | IC50 (PBLUC_HILL_SLOPE 0.774, PBLUC_R_SQUARED 0.875, read-out: LUCIFERASE INFECTION ASSAY - IC50): 1.09 µM
19 | CCOc1ccc2c(c1)C(=O)C(=O)N2Cc1ccc(OC)cc1 | > 10.6 | IC50 (PBLUC_HILL_SLOPE 0.721, PBLUC_R_SQUARED 0.0969, read-out: LUCIFERASE INFECTION ASSAY - IC50): > 10.6 µM
20 | Cc1cc(N2CCN(C)CC2)n2ncc(-c3ccc(F)cc3)c2n1 | > 10.1 | IC50 (PBLUC_HILL_SLOPE 0.664, PBLUC_R_SQUARED 0.928, read-out: LUCIFERASE INFECTION ASSAY - IC50): 0.571 µM
21 | c1ccc(OCc2nc3ccccc3n2-c2cc(-c3ccccc3)n[nH]2)cc1 | > 10 | IC50 (PBLUC_HILL_SLOPE 0.678, 16.2, PBLUC_R_SQUARED 0.350, 0.0461, read-out: LUCIFERASE INFECTION ASSAY - IC50): 9.43 µM

Row | SMILES | IC90 [µM] | also measured
22 | Cc1ccc(S(=O)(=O)NNC(=O)COc2ccc(SC(F)(F)F)cc2)cc1 | > 7.85 | IC50 (PBLUC_HILL_SLOPE 0.658, PBLUC_R_SQUARED 0.0672, read-out: LUCIFERASE INFECTION ASSAY - IC50): > 7.85 µM
23 | O=C(O)c1c2c(nc3ccccc13)/C(=C/c1ccc(OC(F)F)cc1)CC2 | > 10 | IC50 (PBLUC_HILL_SLOPE 0.722, PBLUC_R_SQUARED 0.387, read-out: LUCIFERASE INFECTION ASSAY - IC50): 5.43 µM
24 | Cc1cc(C(=O)CSC2=NCCS2)c(C)n1-c1ccc(F)cc1 | > 10 | IC50 (PBLUC_HILL_SLOPE 0.709, PBLUC_R_SQUARED 0.459, read-out: LUCIFERASE INFECTION ASSAY - IC50): 2.87 µM
25 | Cc1cc(C)c(C#N)c(SCC(=O)N(C)Cc2cnn(-c3ccccc3)c2)n1 | > 10 | IC50 (PBLUC_HILL_SLOPE 0.688, PBLUC_R_SQUARED 0.271, read-out: LUCIFERASE INFECTION ASSAY - IC50): 4.09 µM
26 | CC12CCC(CC1=NNc1nc3ccccc3o1)C2(C)C (configuration not stated) | > 10 | IC50 (PBLUC_HILL_SLOPE 0.724, PBLUC_R_SQUARED 0.679, read-out: LUCIFERASE INFECTION ASSAY - IC50): 4.33 µM
27 | Cc1c(C)n(CCCO)c2ncn3nc(-c4ccccc4)nc3c12 | > 10.3 | IC50 (PBLUC_HILL_SLOPE 0.753, PBLUC_R_SQUARED 0.737, read-out: LUCIFERASE INFECTION ASSAY - IC50): 1.26 µM
28 | Cn1c(C=C2NC(c3cnccn3)=NO2)n[nH]c1=S | > 12 | IC50 (PBLUC_HILL_SLOPE 0.666, PBLUC_R_SQUARED 0.147, read-out: LUCIFERASE INFECTION ASSAY - IC50): > 12 µM
29 | COc1ccc(NC(=O)c2ccc(CN(C)C3CCCCCC3)cc2)cc1 | > 2 | IC50 (PBLUC_HILL_SLOPE 0.775, PBLUC_R_SQUARED 0.25, read-out: LUCIFERASE INFECTION ASSAY - IC50): 1.73 µM
30 | CC(C)(C)n1ncc(C(=O)NCCOc2ccccc2)c1C(F)(F)F | > 10 | IC50 (PBLUC_HILL_SLOPE 0.7, PBLUC_R_SQUARED 0.775, read-out: LUCIFERASE INFECTION ASSAY - IC50): 0.591 µM
31 | O=C(Nc1ccncc1)c1cc([N+](=O)[O-])ccc1Sc1ccccc1 | > 9.39 | IC50 (PBLUC_HILL_SLOPE 0.732, PBLUC_R_SQUARED 0.239, read-out: LUCIFERASE INFECTION ASSAY - IC50): 3.82 µM
32 | Fc1ccc(-c2cnn3c(NCc4cccs4)ccnc23)cc1Cl | 7.94 | IC50 (PBLUC_HILL_SLOPE 0.723, PBLUC_R_SQUARED 0.681, read-out: LUCIFERASE INFECTION ASSAY - IC50): 0.38 µM
33 | Clc1cccc(Nc2ncc(-c3ccc4c(c3)OCCCO4)s2)c1 | 3.49 | IC50 (PBLUC_HILL_SLOPE 0.775, PBLUC_R_SQUARED 0.83, read-out: LUCIFERASE INFECTION ASSAY - IC50): 0.205 µM
34 | O=C1OCCC1Sc1nc(-c2ccccc2)c(-c2ccccc2)o1 (configuration not stated) | > 9.78 | IC50 (PBLUC_HILL_SLOPE 0.774, PBLUC_R_SQUARED 0.522, read-out: LUCIFERASE INFECTION ASSAY - IC50): 4.13 µM
35 | CSc1nccc(-c2ccc3c(c2)CCC(C)(C)O3)n1 | 11 | IC50 (PBLUC_HILL_SLOPE 0.747, PBLUC_R_SQUARED 0.886, read-out: LUCIFERASE INFECTION ASSAY - IC50): 0.583 µM
36 | CC(C)(C)c1ccc(C(=O)Nc2cc(Cl)ccc2OC(=O)c2ccc(C(C)(C)C)cc2)cc1 | > 7.11 | IC50 (PBLUC_HILL_SLOPE 0.69, PBLUC_R_SQUARED 0.715, read-out: LUCIFERASE INFECTION ASSAY - IC50): 0.555 µM
37 | COc1ccc(CNCc2ccc(N3CCCCCC3)cc2)cc1 | > 10 | IC50 (PBLUC_HILL_SLOPE 0.677, PBLUC_R_SQUARED 0.204, read-out: LUCIFERASE INFECTION ASSAY - IC50): > 10 µM
38 | Cc1c(C)n(CCCO)c2ncn3nc(-c4cccs4)nc3c12 | > 10.1 | IC50 (PBLUC_HILL_SLOPE 0.662, PBLUC_R_SQUARED 0.606, read-out: LUCIFERASE INFECTION ASSAY - IC50): 4.42 µM
39 | CCN(CC)CCNC(=O)c1ccc(-c2ccccc2)cc1 | > 11.1 | IC50 (PBLUC_HILL_SLOPE 0.701, PBLUC_R_SQUARED 0.65, read-out: LUCIFERASE INFECTION ASSAY - IC50): 5.34 µM
40 | CC(C)(C)c1ccc(C(=O)Nc2nnc(Sc3ccc([N+](=O)[O-])cc3C#N)s2)cc1 | 4.98 | IC50 (PBLUC_HILL_SLOPE 0.682, PBLUC_R_SQUARED 0.567, read-out: LUCIFERASE INFECTION ASSAY - IC50): 0.198 µM
41 | O=C(Cn1nnc2ccccc2c1=O)c1ccc(C2CCCCC2)cc1 | > 10 | IC50 (PBLUC_HILL_SLOPE 0.775, PBLUC_R_SQUARED 0.761, read-out: LUCIFERASE INFECTION ASSAY - IC50): 1.11 µM

— ChEMBL document CHEMBL4483862, “Open-source discovery of chemical leads for next-generation chemoprotective antimalarials” (2018)
